Reference: article PMC11204923, “Marine Cytotoxin Santacruzamate A Derivatives as Potent HDAC1-3 Inhibitors and Their Synergistic Anti-Leukemia Effects with Venetoclax” (Marine Drugs, 2024)

Columns and labels:
HDAC1 = target: T1, HDAC1 (Homo sapiens, UniProt Q13547); test: In vitro HDAC inhibition fluorescence assay, HDAC1; format: biochemical; details: for inhibition at 0.01 µM: 10 nM; for inhibition at 0.01 µM / inhibition at 0.1 µM: read-out: Inhibition Rate of HDAC1 (%); for inhibition at 0.1 µM: 100 nM
T1 construct: purchased BPS Bioscience
Protocol: (§1) All of the HDAC enzymes were purchased from BPS Bioscience. In vitro HDAC inhibition assays were conducted as previously described. In brief, 20 μL of recombinant HDAC enzyme solution (HDAC1-9, 11) was mixed with various concentrations of the tested compound (20 μL). […] After incubation at 37 °C for 2 h, the catalysis was stopped by the addition of 10 μL of developer containing 30 mg/mL trypsin and 6 μM trichostatin A (TSA). Then, 30 min later, the fluorescence intensity was measured using a microplate reader at excitation and emission wavelengths of 360 and 460 nm, respectively. The inhibition ratios were calculated from the fluorescence intensity readings of tested wells relative to those of control wells, and the IC50 curves and values were determined by GraphPad Prism 6.0, using the “log(inhibitor) vs. normalized response-variable slope” function.

HDAC2 = target: T2, HDAC2 (Homo sapiens, UniProt Q92769); test: In vitro HDAC inhibition fluorescence assay, HDAC2; format: biochemical
T2 construct: purchased BPS Bioscience
Protocol: as §1

HDAC3 = target: T3, HDAC3 (Homo sapiens, UniProt O15379); test: In vitro HDAC inhibition fluorescence assay, HDAC3; format: biochemical; details: for inhibition at 0.01 µM: 10 nM; for inhibition at 0.01 µM / inhibition at 0.1 µM: read-out: Inhibition Rate of HDAC3 (%); for inhibition at 0.1 µM: 100 nM
T3 construct: purchased BPS Bioscience
Protocol: as §1

MV4-11 cells [1] = test: Cell viability assay (resazurin), MV4-11; format: cell-based; details: Homo sapiens, MV4-11, 72 h; read-out: IC50 anti-proliferative activity MV4-11
Protocol: (§2) The AML cell lines MV4-11, THP-1, KASUMI-1 and HL-60 were purchased from Procell Life Science & Technology Co., Ltd. (Wuhan, China). THP-1 and KASUMI-1 were cultured in RPMI-1640 complete medium containing 10% fetal bovine serum and 1% penicillin and streptomycin. MV4-11 was cultured in IMDM complete medium containing 10% fetal bovine serum and 1% penicillin and streptomycin. HL-60 was cultured in IMDM complete medium containing 20% fetal bovine serum and 1% penicillin and streptomycin. All cell lines were cultured in an incubator with humidity set at 95%, temperature at 37 °C and 5% CO2.
(§3) MV4-11, THP-1, KASUMI-1 and HL-60 cells were plated in 96-well transparent plates (10,000 to 15,000 cells/100 μL) and after incubation overnight, cells were treated with gradient-diluted inhibitors with several concentrations. After the cells were incubated with inhibitors for 72 h, 1 mg/mL of Resazurin (Sigma-Aldrich, Saint Louis, MO, USA) was added (working concentration was 0.1 mg/mL). After incubation at 37 °C for about 3 h, the fluorescence intensity of […] was measured at 560 nm/590 nm (excitation/emission) with a Spectra Max i3 Microplate Reader, and the cell viability was determined. The IC50 curve was drawn using GraphPad Prism 9.5 software.

THP-1 cells = test: Cell viability assay (resazurin), THP-1; format: cell-based; details: Homo sapiens, THP-1, 72 h; read-out: IC50 anti-proliferative activity THP-1
Protocol: as §2, §3

HL-60 cells = test: Cell viability assay (resazurin), HL-60; format: cell-based; details: Homo sapiens, HL-60, 72 h; read-out: IC50 anti-proliferative activity HL-60
Protocol: as §2, §3

Kasumi-1 cells = test: Cell viability assay (resazurin), Kasumi-1; format: cell-based; details: Homo sapiens, Kasumi 1, 72 h; read-out: IC50 anti-proliferative activity Kasumi-1
Protocol: as §2, §3

[2] = system: MV4-11, THP-1, HL60 and Kasumi-1 cells; test: Cell viability assay, four AML cell lines together; format: cell-based; details: synthesized SCA
Protocol: as §2, §3

MV4-11 cells [3] = test: Microdilution checkerboard assay, 25c combined with Venetoclax; format: cell-based; details: Homo sapiens, 72 h, read-out: Inhibition Rate (%)
Protocol: The inhibition effect of 25c combined with Venetoclax on the proliferation of MV4-11 cells was determined by microdilution checkerboard assay. CompuSyn software was used to calculate the combined action index of the two compounds, and the cell inhibition rates of the two compounds acting alone and the combined action were input to calculate the combination index (CI) to evaluate the synergistic effect of the drugs. A CI value less than 1 indicates a synergistic effect, a CI value equal to 1 indicates an additive effect and a CI value greater than 1 indicates an antagonistic effect.

MV4-11 cells [4] = test: Western blot analysis; format: cell-based; details: Venetoclax monotherapy, 24 h
Protocol: MV4-11 cells were inoculated into 12-well plates at a density of 800,000 cells/mL. After incubation overnight, each well was treated with different concentrations of 25c and Venetoclax alone or in combination. After treatment for 24 h, the cells were collected and washed with pre-cooled PBS. A protease inhibitor (cocktail) and RIPA buffer were added for cell lysis. The decomposed solution was centrifuged at 12,000 rpm for 15 min at 4 °C, and the extracted protein was located in the supernatant. The proteins in each sample were denatured by heating at 100 °C in loading buffer (5×) for 10 min. The same amount of proteins in each sample was separated by SDS-PAGE and then electrotransferred to a PVDF membrane (Merck Millipore, Billerica, MA, USA) and enclosed in 5% skim milk powder for 1 h. The primary antibody diluted with an immune response booster solution was incubated in a shaking bed at 4 °C overnight, and the horseradish (HRP)-conjugated second antibody diluted with 5% skim milk powder was incubated at room temperature for 1 h on the second day. After the PVDF membrane was washed with TBST, the target protein bands could be detected with chemiluminescent reagents (Millipore, Billerica, MA, USA) and visualized in the Tanon 5200 + fluorescence imager.
The primary antibodies Caspase 3 (including Cleaved Caspase-3) (sc-56053), Mcl-1 (94296S), Bcl-xL (ab98143), γ-H2AX (9718S), AcHH3 (Lys27) (8173S), AcHH4 (sc-377520), HH3 (ab1791), Ac-tubulin (sc-23950), HDAC6 (sc-28386), α-tubulin (sc-23948), GAPDH (sc-59540) and β-actin (8H10D10) were purchased from Abcam, Cell Signaling Technology and Santa Cruz Biotechnology.

T3 sequence (O15379 whole entry): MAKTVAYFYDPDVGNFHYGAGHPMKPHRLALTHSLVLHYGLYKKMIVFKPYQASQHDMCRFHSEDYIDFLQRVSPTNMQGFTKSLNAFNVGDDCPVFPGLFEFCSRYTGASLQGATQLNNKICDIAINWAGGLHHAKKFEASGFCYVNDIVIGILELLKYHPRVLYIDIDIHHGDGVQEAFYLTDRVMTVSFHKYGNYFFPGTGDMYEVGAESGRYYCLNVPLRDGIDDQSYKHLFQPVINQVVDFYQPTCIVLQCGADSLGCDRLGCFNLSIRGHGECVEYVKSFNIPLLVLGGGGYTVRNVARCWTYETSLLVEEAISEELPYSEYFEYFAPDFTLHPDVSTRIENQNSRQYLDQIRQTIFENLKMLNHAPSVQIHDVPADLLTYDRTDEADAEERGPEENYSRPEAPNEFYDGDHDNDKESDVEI
T3 sequence (Q9Y618 395-489 partner limits assumed): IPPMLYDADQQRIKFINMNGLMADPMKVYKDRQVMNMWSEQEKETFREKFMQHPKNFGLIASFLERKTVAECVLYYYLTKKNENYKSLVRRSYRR
T2 sequence (Q92769 whole entry): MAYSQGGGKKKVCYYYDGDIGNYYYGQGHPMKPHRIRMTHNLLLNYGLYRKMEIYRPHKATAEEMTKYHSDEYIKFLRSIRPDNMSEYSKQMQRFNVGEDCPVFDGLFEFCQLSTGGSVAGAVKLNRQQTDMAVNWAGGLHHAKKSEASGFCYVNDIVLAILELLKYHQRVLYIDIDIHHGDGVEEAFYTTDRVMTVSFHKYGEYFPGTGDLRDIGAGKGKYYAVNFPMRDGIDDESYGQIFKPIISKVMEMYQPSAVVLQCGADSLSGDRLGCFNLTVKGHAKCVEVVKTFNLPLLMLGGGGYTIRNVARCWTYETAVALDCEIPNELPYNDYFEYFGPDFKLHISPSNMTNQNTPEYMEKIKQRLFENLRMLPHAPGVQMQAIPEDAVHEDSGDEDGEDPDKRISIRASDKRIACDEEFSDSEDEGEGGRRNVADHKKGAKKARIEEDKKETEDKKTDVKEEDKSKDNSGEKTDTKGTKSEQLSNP
T1 sequence (Q13547 whole entry): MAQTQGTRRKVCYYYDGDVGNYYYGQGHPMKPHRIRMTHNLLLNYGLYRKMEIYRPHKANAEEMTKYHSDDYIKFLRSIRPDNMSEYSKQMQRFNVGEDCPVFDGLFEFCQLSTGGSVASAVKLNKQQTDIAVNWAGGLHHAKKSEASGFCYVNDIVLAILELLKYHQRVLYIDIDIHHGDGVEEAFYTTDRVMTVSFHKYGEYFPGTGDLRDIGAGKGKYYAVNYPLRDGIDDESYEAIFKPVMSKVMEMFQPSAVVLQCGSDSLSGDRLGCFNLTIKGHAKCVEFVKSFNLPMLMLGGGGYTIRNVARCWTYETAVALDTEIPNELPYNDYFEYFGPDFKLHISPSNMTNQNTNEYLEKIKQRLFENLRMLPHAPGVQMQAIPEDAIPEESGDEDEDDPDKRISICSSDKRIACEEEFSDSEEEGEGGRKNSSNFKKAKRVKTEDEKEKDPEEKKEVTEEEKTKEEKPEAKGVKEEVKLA

SMILES	IC50 (HDAC1) [nM]	inhibition at 0.01 µM (HDAC1) [%]	inhibition at 0.1 µM (HDAC1) [%]	IC50 (HDAC2) [nM]	IC50 (HDAC3) [nM]	inhibition at 0.01 µM (HDAC3) [%]	inhibition at 0.1 µM (HDAC3) [%]	IC50 (MV4-11 cells [1]) [nM]	IC50 (THP-1 cells) [nM]	IC50 (HL-60 cells) [nM]	IC50 (Kasumi-1 cells) [nM]	enzyme inhibitory activity, HDAC1 (HDAC1; screening at 100 nM and 10 nM)	enzyme inhibitory activity, HDAC3 (HDAC3; screening at 100 nM and 10 nM)	anti-proliferative inhibitory activity in four AML cell lines [2]	inhibition at 0.04 µM (MV4-11 cells [3]; Venetoclax 0.04 μM alone) [%]	inhibition at 0.08 µM (MV4-11 cells [3]; Venetoclax 0.08 μM alone) [%]	inhibition at 0.15 µM (MV4-11 cells [3]; Venetoclax 0.15 μM alone) [%]	level of cleaved-caspase3 (MV4-11 cells [4])
CCCNNC(=O)C=Cc1ccc(CNCc2ccccc2)cc1 [Compound 25b, 3-(4-((Benzylamino)methyl)phenyl)-N′-propylacrylohydrazide]	27 ± 2	21.8 ± 1.6	77 ± 0.3	111 ± 16.9	2.7 ± 0.6	94.8 ± 0.1	97.9 ± 0.2	362 ± 76.8	516 ± 145	736 ± 24.8	448 ± 122	–	–	–	–	–	–	–
CCCNNC(=O)C=Cc1ccc(CNC2Cc3ccccc3C2)cc1 [Compound 25e, 3-(4-(((2,3-Dihydro-1H-inden-2-yl)amino)methyl)phenyl)-N′-propylacrylohydrazide]	36.5 ± 5	10.9 ± 1.2	78.7 ± 0.7	161 ± 29	3.1 ± 1.5	94.8 ± 0.5	95.6 ± 0.2	353 ± 119	451 ± 73.8	502 ± 189	380 ± 147	–	–	–	–	–	–	–
CCCNNC(=O)C=Cc1ccc(CNCc2cccc3ccccc23)cc1 [Compound 25g, 3-(4-(((Naphthalen-1-ylmethyl)amino)methyl)phenyl)-N′-propylacrylohydrazide]	16 ± 1	33.9	76.5 ± 5	46.3 ± 4.1	–	45.9	71.1 ± 1.6	582 ± 240	1020 ± 498	650 ± 247	1010 ± 643	–	–	–	–	–	–	–
Nc1ccccc1NC(=O)c1ccc(CNC(=O)OCc2cccnc2)cc1 [Entinostat, reference compound]	–	3.8 ± 1.1	37.6 ± 2.6	–	–	–	–	651 ± 37.4	1520 ± 218	1100 ± 51.5	480 ± 161	–	–	–	–	–	–	–
CCOC(=O)NCCCC(=O)NCCc1ccccc1 [SCA, Santacruzamate A]	–	–	–	–	–	–	–	> 10000	> 10000	> 10000	> 10000	no activity	no activity	no inhibitory activity was detected	–	–	–	–
CC1(C)CCC(CN2CCN(c3ccc(C(=O)NS(=O)(=O)c4ccc(NCC5CCOCC5)c([N+](=O)[O-])c4)c(Oc4cnc5[nH]ccc5c4)c3)CC2)=C(c2ccc(Cl)cc2)C1 [Venetoclax]	–	–	–	–	–	–	–	–	–	–	–	–	–	–	36.5	62.3	78.5	slightly higher
